This is an account of results in patent US20070142433A1, “Angiogenesis-affecting compounds and methods of use thereof” (priority 2004, published 2007).

Structures can show the parent of a compound that is named as a salt. Where two headings read alike, the source gives them in different places.

In assay [1] the test system is SMC. The experiment in a line: Cell proliferation assay (crystal violet), SMC. Format: cell-based. As to conditions: 72 hours, OD 595 nm. The procedure:
(§1) In order to further confirm the surprising results described above, the compounds were tested in a cell proliferation assay. Crystal violet was used to measure cell proliferation; this basic dye stains cell nuclei and provides a sensitive, rapid evaluation. Light absorption of unstained or destained cell layers is negligible, making it possible to perform cell number measurements in wells. Six cell types (HUVEC, HDMEC, SMC, Fibroblast, A375 and RENCA) were plated and treated with the compounds in a log2 titration for 72 hours. The optimal cell number for each cell type was determined and optical density (OD) was measured at 595 nm. Each data point was measured in quadruplicate. The assay was stopped after 72 hours and subsequently analyzed. The OD-value of the plated cells before addition of the compounds was subtracted from all OD-values obtained after treatment. The percentage in relation to control proliferation was then calculated. Negative values therefore represent a count of fewer cells than were plated. The IC50 is given below in Table 1. Results are shown as a percentage in relation to the control proliferation. The IC50 were calculated using GraphPad Prism software (GraphPad Software, Inc.). Perhexiline results are depicted graphically in FIGS. 4A-4C and Erythromycin results in FIGS. 5A-5C.

Assay [2] relates to HUVEC sprouting. The experiment in a line: Spheroid-based 3D angiogenesis assay (IC50, alone or with VEGFR-2 inhibitor). Format: cell-based, human. The following applies: Homo sapiens, HUVEC. An excerpt:
Therefore, the assay was applied to test compounds alone or in combination with a VEGFR-2 inhibitor to address changes in IC50. […] The VEGFR-2 inhibitor was applied at a concentration close to the IC50.

Assay [3] has as its system Endothelial cells, Fibroblast, Alexander cells. The experiment in a line: Viability of cells (Endothelial cells, Fibroblast, Alexander cells). Format: cell-based.
Assay [4] deals with RENCA. The experiment in a line: Cell proliferation assay (crystal violet), RENCA. It is filed as cell-based. As to conditions: 72 hours, OD 595 nm. The protocol:
as §1

Assay [5] concerns HUVEC. The experiment in a line: Cell proliferation assay (crystal violet), HUVEC. Format: cell-based. As to conditions: Homo sapiens, 72 hours, OD 595 nm. The protocol:
In order to further confirm the surprising results described above, the compounds were tested in a cell proliferation assay. Crystal violet was used to measure cell proliferation; this basic dye stains cell nuclei and provides a sensitive, rapid evaluation. Light absorption of unstained or destained cell layers is negligible, making it possible to perform cell number measurements in wells.
Six cell types (HUVEC, HDMEC, SMC, Fibroblast, A375 and RENCA) were plated and treated with the compounds in a log2 titration for 72 hours. The optimal cell number for each cell type was determined and optical density (OD) was measured at 595 nm. Each data point was measured in quadruplicate. The assay was stopped after 72 hours and subsequently analyzed.
The OD-value of the plated cells before addition of the compounds was subtracted from all OD-values obtained after treatment. The percentage in relation to control proliferation was then calculated. Negative values therefore represent a count of fewer cells than were plated. The IC50 is given below in Table 1. Results are shown as a percentage in relation to the control proliferation. The IC50 were calculated using GraphPad Prism software (GraphPad Software, Inc.). Perhexiline results are depicted graphically in FIGS. 4A-4C and Erythromycin results in FIGS. 5A-5C. […]

Assay [6] has as its system SMC. Kind of assay: Cytoviability assay (resazurin), SMC. Format: cell-based. The following applies: 24 hours after treatment, read-out: IC50 cell viability SMC. The protocol:
(§2) A cell viability assay based on cellular reduction of resazurin to the fluorescent product resorufin was performed. Viable cells can metabolize and reduce the dye, whereas dead cells rapidly lose the capacity to do so, making the increase in fluorescence directly proportional to the number of viable cells. The tested compounds were added in a log2 titration and viable cells were analyzed 24 hours after treatment. The fluorescence was determined at an excitation wavelength of 560 nm and an emission wavelength of 590 nm. The percentage of viable cells in relation to the untreated control proliferation was calculated. […] Perhexiline results are depicted graphically in FIGS. 6A-6C and Erythromycin results in FIGS. 7A-7C.
(In general: The colour change of resazurin is a common sign of viable cells or microbes.)

Assay [7] has as its system A375. The experiment in a line: Cytoviability assay (resazurin), A375. It is filed as cell-based. As to conditions: Homo sapiens, A-375, 24 hours after treatment, read-out: IC50 cell viability A375. The procedure: as §2
Assay [8] has as its system HUVEC. Kind of assay: Cytoviability assay (resazurin), HUVEC. Format: cell-based. The following applies: Homo sapiens, 24 hours after treatment, read-out: IC50 cell viability HUVEC. The procedure:
as §2

One may read the IC50 as the concentration that inhibits the measured activity by half.

Take `C1CCC(C(CC2CCCCN2)C2CCCCC2)CC1` (stereo not drawn) [Perhexiline, Perhexiline maleate]: the IC50 in assay [1] is 14 µM; in assay [2] (compound alone, read-out: IC50 3D angiogenesis assay without VEGFR-2 inhibitor), 5.4 µM; in assay [2] (read-out: IC50 in vitro 3D sprouting of HUVEC) it was 1.5 µM; in assay [3] it was roughly 10 µM; in assay [4], 7.6 µM; in assay [5] it was 10 µM. The results for the IC50 in assay [6], in assay [7] and in assay [8] were 32 µM, 10 µM and 8.4 µM, respectively.
